Results from publication PMC12408352, “Complete biosynthesis of salicylic acid from phenylalanine in plants” (Nature, 2025).

How the values were obtained:
Type in all cases: biochemical
AIM1 (OsCHD), MBP-AIM1 = target: T1, AIM1 (OsCHD), MBP-AIM1 (Oryza sativa, UniProt Q8W1L6); test: product detection by LC-UV-MS; settings: 0.5 mM CA-CoA, 1 mM NAD+, 100 mM Tris-HCl pH 7.5, MgCl2, KCl, pyruvate / lactate dehydrogenase, 30 °C
T1 construct: gene MFP; CDS from rice cDNA in pMAL-c2X, MBP fusion, E. coli BL21 (DE3), amylose resin
T1 sequence (Q8W1L6 1-726): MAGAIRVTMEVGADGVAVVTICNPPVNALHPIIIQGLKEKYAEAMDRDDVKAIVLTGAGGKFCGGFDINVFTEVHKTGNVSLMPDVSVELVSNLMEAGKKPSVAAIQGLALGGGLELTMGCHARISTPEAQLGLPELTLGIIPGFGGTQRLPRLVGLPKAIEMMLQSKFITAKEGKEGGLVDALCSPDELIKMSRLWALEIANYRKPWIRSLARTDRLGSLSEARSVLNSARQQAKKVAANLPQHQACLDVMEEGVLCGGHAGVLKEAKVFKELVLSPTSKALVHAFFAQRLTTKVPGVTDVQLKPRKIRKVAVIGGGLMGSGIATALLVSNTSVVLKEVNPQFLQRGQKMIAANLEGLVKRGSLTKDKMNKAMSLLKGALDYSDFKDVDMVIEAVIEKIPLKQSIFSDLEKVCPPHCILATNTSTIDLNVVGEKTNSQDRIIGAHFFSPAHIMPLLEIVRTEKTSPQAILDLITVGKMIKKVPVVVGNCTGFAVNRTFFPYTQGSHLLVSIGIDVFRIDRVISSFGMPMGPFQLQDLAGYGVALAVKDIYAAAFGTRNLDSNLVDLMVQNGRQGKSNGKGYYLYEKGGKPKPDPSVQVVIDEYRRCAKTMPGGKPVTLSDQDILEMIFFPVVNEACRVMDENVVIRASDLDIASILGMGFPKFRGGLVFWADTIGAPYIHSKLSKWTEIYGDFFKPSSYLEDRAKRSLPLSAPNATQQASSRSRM

PhCHD, MBP-PhCHD = target: T2, PhCHD, MBP-PhCHD (Petunia x hybrida, UniProt J9YIZ4); test: product detection by LC-UV-MS; settings: positive control; AIM1 assay conditions, 0.5 mM CA-CoA, 1 mM NAD+, Tris-HCl pH 7.5, 30 °C
T2 construct: gene CHD; synthesized gene in pMAL-c5X, MBP fusion, E. coli BL21 (DE3), amylose resin
T2 sequence (J9YIZ4 1-724): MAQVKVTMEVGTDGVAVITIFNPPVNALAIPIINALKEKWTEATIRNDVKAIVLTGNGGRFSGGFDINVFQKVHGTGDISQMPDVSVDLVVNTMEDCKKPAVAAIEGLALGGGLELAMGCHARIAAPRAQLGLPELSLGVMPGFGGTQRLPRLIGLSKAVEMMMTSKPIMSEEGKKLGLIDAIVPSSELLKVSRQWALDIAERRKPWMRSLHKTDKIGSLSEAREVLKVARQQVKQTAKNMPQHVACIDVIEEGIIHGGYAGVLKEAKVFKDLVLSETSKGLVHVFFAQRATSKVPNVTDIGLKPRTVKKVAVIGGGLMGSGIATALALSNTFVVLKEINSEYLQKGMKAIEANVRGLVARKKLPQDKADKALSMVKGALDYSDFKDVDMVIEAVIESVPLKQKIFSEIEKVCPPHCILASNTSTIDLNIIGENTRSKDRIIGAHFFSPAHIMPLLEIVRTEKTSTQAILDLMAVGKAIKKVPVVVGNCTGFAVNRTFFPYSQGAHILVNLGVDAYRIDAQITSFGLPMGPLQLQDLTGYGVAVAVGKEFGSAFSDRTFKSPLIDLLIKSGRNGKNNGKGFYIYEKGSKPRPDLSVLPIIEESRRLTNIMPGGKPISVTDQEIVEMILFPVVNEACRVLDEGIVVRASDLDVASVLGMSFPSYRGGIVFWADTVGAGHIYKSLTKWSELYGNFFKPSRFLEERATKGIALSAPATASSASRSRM

OSD3, Flag-OSD3 = target: T3, OSD3, Flag-OSD3 (Oryza sativa, UniProt Q69P73); test: product detection by LC-UV-MS, yeast microsomes; settings: 50 µM BB, 5 mM NADPH, 80 mM sodium phosphate pH 7.0, 5 mM DTT, 30 °C
T3 construct: gene Os09g0441400; Flag fusion in pESC-URA, microsomes of yeast strain WAT11
T3 sequence (Q69P73 1-514): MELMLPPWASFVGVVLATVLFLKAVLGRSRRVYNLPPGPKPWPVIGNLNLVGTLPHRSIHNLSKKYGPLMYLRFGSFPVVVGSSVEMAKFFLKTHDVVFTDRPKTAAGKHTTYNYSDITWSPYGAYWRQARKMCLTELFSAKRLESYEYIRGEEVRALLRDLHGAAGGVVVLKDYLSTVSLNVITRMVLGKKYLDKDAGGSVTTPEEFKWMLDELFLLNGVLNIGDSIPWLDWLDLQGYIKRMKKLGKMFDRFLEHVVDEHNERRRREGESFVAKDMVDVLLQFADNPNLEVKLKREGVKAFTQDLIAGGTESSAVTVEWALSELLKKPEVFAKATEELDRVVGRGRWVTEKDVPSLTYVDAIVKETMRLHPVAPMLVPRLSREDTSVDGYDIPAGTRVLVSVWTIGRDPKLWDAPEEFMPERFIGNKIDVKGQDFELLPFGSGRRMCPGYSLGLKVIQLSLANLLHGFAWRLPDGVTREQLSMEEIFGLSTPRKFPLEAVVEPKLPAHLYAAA

Row | Compound | product detection by LC-UV-MS (AIM1 (OsCHD), MBP-AIM1) | product detection by LC-UV-MS (PhCHD, MBP-PhCHD) | product detection by LC-UV-MS, yeast microsomes (OSD3, Flag-OSD3)
1 | CC(C)(COP(=O)(O)OP(=O)(O)OC[C@H]1O[C@@H](n2cnc3c(N)ncnc32)[C@H](O)[C@@H]1OP(=O)(O)O)[C@@H](O)C(=O)NCCC(=O)NCCSC(=O)CC(=O)c1ccccc1 [benzoylacetyl-CoA] | confirming the product of AIM1 as BAc-CoA | used it to produce a BAc-CoA standard | 
2 | O=C(OCc1ccccc1)c1ccccc1 [benzyl benzoate] |  |  | OSD3 acts as a benzyl benzoate 2-hydroxylase (BB2H) to catalyse the hydroxylation of BB
3 | O=C(OCc1ccccc1)c1ccccc1O [benzyl salicylate] |  |  | to catalyse the hydroxylation of BB, yielding BS
4 | CC(C)(COP(=O)(O)OP(=O)(O)OC[C@H]1O[C@@H](n2cnc3c(N)ncnc32)[C@H](O)[C@@H]1OP(=O)(O)O)[C@@H](O)C(=O)NCCC(=O)NCCSC(=O)/C=C/c1ccccc1 [cinnamoyl-CoA] | AIM1 functions as a CA-CoA hydratase-dehydrogenase for converting CA-CoA to BAc-CoA | The MBP–PhCHD enzyme was used as a positive control | 
